Values of other authors in US20260199284A1, “SPECIFIC VASH COMPOUNDS (SVC) INHIBITORS FOR HEART DISEASES” (MT ACT, priority 2023, published 2026).

Test system: VASH
Settings: cited from earlier work

CCOC(=O)[C@H]1O[C@@H]1C(=O)N[C@@H](Cc1ccc(O)cc1)C(=O)O [Epo-Y, epoxide-Y]
more potent VASH inhibitor than PTL: > 10 fold
